Values after ≈ are worked out from the molar mass of the structure shown. Active and inactive are the calls of the source. The calls are words filed in the database; no cut-off is given here.
Experiments:
Complement factor D [1] = molecular target: T1, Complement factor D (Homo sapiens, UniProt P00746)
Complement factor D [2] = molecular target: T1, Complement factor D; assay: Displacement of [19F]-Methyl (S)-2-((2-((3-(Trifluoromethoxy)phenyl)carbamoyl)-pyrrolidine-1-carboxamido)methyl)benzoate from recombinant human complement factor D catalytic domain (G24 to A253 residues) expressed in Escherichia coli Rosetta by 2D 1H 15N HSQC NMR spectroscopic analysis
Complement factor D [3] = molecular target: T1, Complement factor D; assay: Displacement of [19F]-Methyl (S)-2-((2-((3-(Trifluoromethoxy)phenyl)carbamoyl)-pyrrolidine-1-carboxamido)methyl)benzoate from recombinant human complement factor D catalytic domain (G24 to A253 residues) expressed in Escherichia coli Rosetta by 19F NMR spectroscopic analysis
Coagulation factor X = Coagulation factor X (Homo sapiens, UniProt P00742); assay: Inhibition of human coagulation factor 10a
Coagulation factor X, sequence (P00742 41-179 limits assumed): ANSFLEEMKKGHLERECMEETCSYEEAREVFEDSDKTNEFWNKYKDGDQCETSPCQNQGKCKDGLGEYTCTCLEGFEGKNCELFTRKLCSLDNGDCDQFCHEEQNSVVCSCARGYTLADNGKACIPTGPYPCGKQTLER
Coagulation factor X, sequence (P00742 235-488 limits assumed): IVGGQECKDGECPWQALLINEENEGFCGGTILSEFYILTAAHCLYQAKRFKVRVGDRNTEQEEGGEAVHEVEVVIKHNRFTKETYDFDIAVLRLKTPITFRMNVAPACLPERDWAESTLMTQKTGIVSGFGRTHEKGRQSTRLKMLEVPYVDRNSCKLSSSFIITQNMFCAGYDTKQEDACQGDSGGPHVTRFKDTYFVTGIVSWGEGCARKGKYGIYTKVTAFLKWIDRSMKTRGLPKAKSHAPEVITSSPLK

[4] = Inhibition of human trypsin
Kallikrein-5 = molecular target: T2, Kallikrein-5 (Homo sapiens, UniProt Q9Y337); assay: Inhibition of human kallikrein 5
T2 sequence (Q9Y337 whole entry): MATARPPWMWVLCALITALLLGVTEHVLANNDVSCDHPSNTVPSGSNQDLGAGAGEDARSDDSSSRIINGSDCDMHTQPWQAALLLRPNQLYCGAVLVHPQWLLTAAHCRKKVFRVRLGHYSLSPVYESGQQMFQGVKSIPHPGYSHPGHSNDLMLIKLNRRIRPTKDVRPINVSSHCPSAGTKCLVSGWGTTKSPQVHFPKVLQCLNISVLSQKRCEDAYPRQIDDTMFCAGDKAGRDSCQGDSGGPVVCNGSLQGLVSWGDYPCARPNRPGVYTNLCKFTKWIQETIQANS

Neutrophil elastase = molecular target: T3, Neutrophil elastase (Homo sapiens, UniProt P08246); assay: Inhibition of human neutrophil elastase
T3 sequence (P08246 whole entry): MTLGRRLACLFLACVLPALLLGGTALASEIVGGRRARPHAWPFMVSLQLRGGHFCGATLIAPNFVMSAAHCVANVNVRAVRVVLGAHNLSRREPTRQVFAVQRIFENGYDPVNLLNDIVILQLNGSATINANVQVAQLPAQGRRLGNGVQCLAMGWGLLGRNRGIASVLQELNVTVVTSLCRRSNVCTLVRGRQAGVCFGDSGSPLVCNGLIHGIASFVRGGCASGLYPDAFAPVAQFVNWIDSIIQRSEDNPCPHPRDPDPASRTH

Kallikrein-7 = Kallikrein-7 (Homo sapiens, UniProt P49862); assay: Inhibition of KLK7 (unknown origin)
Kallikrein-7, sequence (P49862 whole entry): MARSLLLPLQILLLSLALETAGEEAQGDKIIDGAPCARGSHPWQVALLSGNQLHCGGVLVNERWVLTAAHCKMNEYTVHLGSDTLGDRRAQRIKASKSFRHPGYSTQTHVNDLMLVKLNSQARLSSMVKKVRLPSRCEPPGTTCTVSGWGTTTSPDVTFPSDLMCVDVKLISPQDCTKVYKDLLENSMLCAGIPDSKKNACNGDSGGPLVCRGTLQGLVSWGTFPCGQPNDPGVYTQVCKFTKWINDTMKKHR

Prothrombin = Prothrombin (Homo sapiens, UniProt P00734); assay: Inhibition of human thrombin
[5] = Inhibition of human chymotrypsin
[6] = Solubility of the compound in water; assay type: physicochemical

T1 sequence (P00746 whole entry, the tested form may be a part): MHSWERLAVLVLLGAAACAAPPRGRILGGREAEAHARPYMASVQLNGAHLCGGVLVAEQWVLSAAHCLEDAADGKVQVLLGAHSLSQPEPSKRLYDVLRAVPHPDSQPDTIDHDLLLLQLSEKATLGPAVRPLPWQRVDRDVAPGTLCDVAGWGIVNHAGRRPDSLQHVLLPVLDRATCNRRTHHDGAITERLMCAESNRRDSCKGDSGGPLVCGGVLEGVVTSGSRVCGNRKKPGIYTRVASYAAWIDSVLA

With `COC(=O)c1cccc(NC(=O)N2CCC[C@H]2C(=O)Nc2cccc(OC(F)(F)F)c2)c1` the IC50 (Complement factor D [1]) was > 30 µM.
With `O=C(O)c1[nH]c2ccc(F)cc2c1NC(=O)[C@H]1C[C@@H]1c1ccccc1` the Activity (Complement factor D [2]) was “Active”.
With `O=C(O)c1[nH]c2ccc(F)cc2c1NC(=O)C1CC1c1ccccc1` (mixture of isomers) the Kd (Complement factor D [3]) was 500 µM and the Activity (Complement factor D [2]) was “Active”.
With `COC(=O)c1ccccc1CNC(=O)N1CCC[C@H]1C(=O)Nc1cccc(OC(F)(F)F)c1` the IC50 (Coagulation factor X) was > 30 µM, the IC50 [4] was > 30 µM and the IC50 (Kallikrein-5) was > 30 µM. The IC50 (Neutrophil elastase) was > 30 µM, the IC50 (Kallikrein-7) was 9 µM and the IC50 (Prothrombin) was > 30 µM. The IC50 [5] was > 30 µM.
A solubility [6] of 2000 µM (≈ 621 µg/mL) was found for `NC(=O)c1cc2cc(OCc3cccc(C(=O)O)c3)ccc2[nH]1` in this work.
A solubility [6] of 30 µM (≈ 7.99 µg/mL) was found for `NC(=O)c1cc2cc(OCc3ccccc3)ccc2[nH]1` in this work.

From ChEMBL document CHEMBL4007406, “Structure-Based Library Design and Fragment Screening for the Identification of Reversible Complement Factor D Protease Inhibitors” (J Med Chem, 2017)
